{"source": "patent US5514821A", "about": "“Ring-labeled retinoids and intermediates, and methods for their synthesis and use” (Ligand Pharmaceuticals Incorporated, priority 1994, dated 1996)", "key": {"[1]": {"system": "RARs and RXRs", "conditions": "Heyman et al., Cell, 68:397 (1992); cited from earlier work"}, "[2]": {"system": "RARs and RXRs", "assay": "binding to baculovirus-derived RARs and RXRs (overall finding in words)", "conditions": "RARα,β,γ and RXRα,β,γ; for binding to RARs and RXRs (in words): saturation binding", "from_the_text": "Exp. Stat. Bull., No. 155 (1987).\n[…]. […] […]."}}, "data": [{"smiles": "CC1=C(/C=C/C(C)=C\\C=C\\C(C)=C\\C(=O)O)C(C)(C)CCC1", "note": "[9-cis RA, 9-cis retinoic acid]", "values": [{"measurement": "binding to and modulating gene expression via the RARs and RXRs", "setting": "[1]", "value": "capable of binding to and modulating gene expression via the RARs and RXRs"}, {"measurement": "activity on the retinoid receptors (in words, per Table 1)", "setting": "[2]", "value": "active on all six known retinoid receptors"}, {"measurement": "binding to RARs and RXRs (in words)", "setting": "[2]; listed as 9-cis retinoic acid", "value": "binds to the RARs and RXRs with high affinity in a saturable and specific manner"}, {"measurement": "binding to RARs and RXRs (in words)", "setting": "[2]; listed as 9-cis-retinoic acid", "value": "effectively binds to all six receptors"}]}, {"smiles": "CC1=C(/C=C/C(C)=C/C=C/C(C)=C/C(=O)O)C(C)(C)CCC1", "note": "[ATRA, all-trans retinoic acid]", "values": [{"measurement": "activity on the retinoid receptors (in words, per Table 1)", "setting": "[2]", "value": "only active on RARα,β,γ"}, {"measurement": "binding to RARs and RXRs (in words)", "setting": "[2]", "value": "only binds to the RARs"}]}]}
